# In patent publication US20030118671A1, “Formulation containing peanut leaf extract and its preparation” (priority 1999, published 2003):
# Key:
# [1] = tested on: mice; settings: mouse, in vivo; cited from earlier work
# [2] = tested on: spleen, thymus and lymph node; assay: Immune organs weight assay; assay type: in vivo, Kunming mice; settings: mice, day 8; leaf extract 84.8 g/1 kg orally 7 days; cortisone acetate 50 mg/1 kg i.m. 3 times
# Excerpt: Organ weights of Spleen, thymus and lymph node in animals are increased by most of the immunopotentiating agents, but decreased by immunosuppressive agents. So the assay was used to investigate the effect of the preparation containing leaf extract of A. hypogaea on immunological function.
# Animals: male and female (1:1) Kunming mice (provided by Shanghai Bioproduct Institute) were used.
# Drugs: leaf extract of A. hypogaea, provided by Shanghai Zhoaxiang Chinese Medicinal Herbs Factory. Injection of cortisone acetate was provided by Shanghai Ninth Pharmaceutical Factory.
# Methods: The animals were divided into groups at random after weighting. Mice were administered with 84.8 g/1 kg body weight diluted leaf extract of A. hypogaea (in terms of crude drugs) orally once per day for 7 days. 50 mg/1 kg cortisone acetate was injected intramuscularly (totally 3 times), on 2, 4, 6 days after the administration of leaf extract of A. hypogaea. 0.2 ml/10 g body weight physiological saline was administrated orally in control group, once per day for 7 days. Animals were sacrificed on the day 8 by bleeding from orbit vein. Then, spleen, thymus and lymph node (jaw, axillary fossa, groin) were taken out and weighed immediately. Each organic weight was shown as mg/10 g body weight.
# [3] = tested on: mononuclear macrophage; assay: Carbon particulate clearance test; assay type: in vivo; settings: mice, day 8 after seven days of drug; the values are: carbon clearance K value
# Excerpt: This method was used to observe the phagocytosis of mononuclear macrophage. Immunopotentiators can activate the macrophage of mice, and enhance the phagocytosis thereof. In contrast, immunosuppressants suppress these effects. Therefore, K values were increased or decreased by these two kinds of drugs, respectively
# Animals and drugs were same to those used above.
# Methods: After oral administration of drugs or physiological saline, or intramuscular injection of […], for seven days, 0.05 mL/10 g body weight injected through tail vein in mice on day 8. 20 μL blood was acquired from orbit vein, in 1 and 5 minutes after injection, added to 0.1%Na2CO3 respectively, and shaken up. Optical density was detected with Model-72 spectrophotometer at λ=680 nm. K values were calculated. The results were statistically analyzed and p values were assessed by t-test.
# [4] = tested on: spleen cells; assay: Spleen cell rosette test (RFC method); assay type: in vivo, mice; settings: 4 days after SRBC immunisation
# Procedure: (§1) Peripheral blood of mouse, spleen cells rosette formation method. This method was used to observe the effect of drugs on antigen combining cell during the earlier stage of immune, which was used to screen immunopotentiator or immunosuppressant. 7.5 mg cyclophosphamide (manufactured by Shanghai Twelve Pharmaceutical Factory) per 1 kg of body weight of male mouse was injected intraperitoneally. According the recommended method for screening immune drugs disclosed by a person, each group was administrated and immured by injection sheep red blood cell (SRBC). After 4 days, peripheral blood and spleen cell suspension (approximately 9 million spleen cells per milliliter) were obtained from mice, and 1% SRBC and 0.1 mL inactivated calf blood serum were added thereto, intermixed and centrifuged under low-speed for 10 minutes. Then 1% toluidine blue was added in minor amount along the wall of the test tubes. Cell pellet was slightly dispersed by pipette. Well-mixed cell suspension was dropped to blood cell counting chamber and the number of rosette in 1 mm^3 was counted under a microscope. Once lymphocyte was surrounded by more than five SRBC, it was regarded as a rosette.
# [5] = tested on: peripheral blood of mouse; assay: Peripheral blood rosette test (RFC method); assay type: in vivo, mice; settings: 4 days after SRBC immunisation
# Procedure: as §1
smiles,measurement,setting,value
C=CC(C)(O)CCC=C(C)C (stereo not shown) [Linalool],sedative-hypnotic effect (literature),[1],positive effects on the sedative-hypnotic
"CC(=O)OCC(=O)[C@@]1(O)CC[C@H]2[C@@H]3CCC4=CC(=O)CC[C@]4(C)[C@H]3C(=O)C[C@@]21C [cortisone, cortisone acetate]",lymph node weight,[2],0.12 ± 0.05 mg/10 g body weight
same,thymus weight,[2],3.77 ± 0.83 mg/10 g body weight
same,weight of spleen,[2],2.58 ± 1.00 mg/10 g body weight
same,carbon clearance K value,[3],0.00587 ± 0.0033
O=P1(N(CCCl)CCCl)NCCCO1 (stereo not shown) [cyclophosphamide],rosette percent,[4],20.50 ± 4.29
same,rosette percent,[5],15.93 ± 3.35
